Converted amounts (≈) assume the structure as drawn.
Tests used:
Type in all cases: functional
Staphylococcus aureus [1] = assay: In vitro antibacterial activity against Staphylococcus aureus A20700 was determined
Staphylococcus aureus [2] = assay: In vitro antibacterial activity against Staphylococcus aureus A9537 was determined
[3] = tested on: Staphylococcus epidermidis; assay: In vitro antibacterial activity against Staphylococcus epidermidis A25441 was determined

Compound | MIC (Staphylococcus aureus [1]) | MIC (Staphylococcus aureus [2]) | MIC [3]
COC1C(OC(=O)c2ccco2)C(O)C(Oc2ccc3c(O)c(NC(=O)c4ccccc4)c(=O)oc3c2C)OC1(C)C (stereo not drawn) | 8 µg/mL (≈ 13.8 µM) | 8 µg/mL (≈ 13.8 µM) | 8 µg/mL (≈ 13.8 µM)
COC1C(OC(=O)c2[nH]cnc2C)C(O)C(Oc2ccc3c(O)c(NC(=O)c4ccccc4)c(=O)oc3c2C)OC1(C)C.Cc1ccc(S(=O)(=O)O)cc1 (stereo not drawn) | 16 µg/mL | 16 µg/mL | 8 µg/mL

Further lines, results first:

MIC (Staphylococcus aureus [1]) | MIC (Staphylococcus aureus [2]) | MIC [3] | Compound
8 µg/mL (≈ 13.5 µM) | 2 µg/mL (≈ 3.37 µM) | 8 µg/mL (≈ 13.5 µM) | COC1C(OC(=O)c2cccn2C)C(O)C(Oc2ccc3c(O)c(NC(=O)c4ccccc4)c(=O)oc3c2C)OC1(C)C (stereo not drawn)
4 µg/mL (≈ 5.85 µM) | 8 µg/mL (≈ 11.7 µM) | 2 µg/mL (≈ 2.93 µM) | COC1C(OC(=O)c2c(C)ncn2Cc2ccccc2)C(O)C(Oc2ccc3c(O)c(NC(=O)c4ccccc4)c(=O)oc3c2C)OC1(C)C (stereo not drawn)
0.13 µg/mL (≈ 0.219 µM) | 0.13 µg/mL (≈ 0.219 µM) | 0.13 µg/mL (≈ 0.219 µM) | COC1C(OC(=O)c2ccc(C)[nH]2)C(O)C(Oc2ccc3c(O)c(NC(=O)c4ccccc4)c(=O)oc3c2C)OC1(C)C (stereo not drawn)
4 µg/mL (≈ 6.56 µM) | 0.03 µg/mL (≈ 0.0492 µM) | 8 µg/mL (≈ 13.1 µM) | COC1C(OC(=O)c2ccc(C)s2)C(O)C(Oc2ccc3c(O)c(NC(=O)c4ccccc4)c(=O)oc3c2C)OC1(C)C (stereo not drawn)

From ChEMBL document CHEMBL1127925, “Synthesis and in vitro antibacterial activity of new semi-synthetic noviosylcoumarin antibiotics: chemical modification at the C-3 ester” (1994)
